How the values were obtained:
Type in all cases: cell-based, murine
[1] = test system: NO production induced by LPS in RAW264.7 cells; assay: Inhibition of NO production induced by LPS (Griess nitrite assay); conditions: Mus musculus, LPS 1 μg/mL, 24 h, samples 1–30 μM, Griess reagent, means of four experiments
Description: (§1) RAW264.7 cells were incubated in RPMI 1640 medium supplemented with penicillin (100 U/mL), streptomycin (100 μg/mL) and 10% heat inactivated fetal bovine serum at 37 °C in a humidified incubator with 5% CO2.
Nitric oxide was determined by measuring the amount of nitrite in the cell culture supernatant, using Griess reagent (mixture of equal volume of reagent A and reagent B, (A): 1% sulphanilamide; (B): 0.1% naphthylethylene diamine dihydrochloride in 10% H3PO4). Hydrocortisone was used as positive control. RAW264.7 cells were treated by lipopolysaccharides (LPS, 1 μg/mL) with or without samples (1–9, 1–30 μM) for 24 h, then briefly centrifuged. 100 μL of the cell culture supernatant were mixed with 100 μL of Griess reagent, followed by incubation for 10 min at room temperature. The absorbance at 540 nm was measured and the inhibitory rates were calculated by using a standard calibration curve prepared from different concentrations of sodium nitrite.

[2] = test system: TNF-α production induced by LPS in RAW264.7 cells; assay: Inhibition of TNF-α release induced by LPS (ELISA); conditions: LPS 1 μg/mL, 6 h, samples 1–30 μM, mouse TNF-α ELISA of culture supernatant, means of four experiments
Description: as §1
[…] 100 μL of the culture supernatant was taken out to determine the level of TNF-α and IL-6 using respective enzyme-linked immunosorbent assay kit according to the manufacturer’s recommendations. Hydrocortisone was used as positive control.

[3] = test system: IL-6 production induced by LPS in RAW264.7 cells; assay: Inhibition of IL-6 release induced by LPS (ELISA); conditions: LPS 1 μg/mL, 6 h, samples 1–30 μM, mouse IL-6 ELISA of culture supernatant, means of four experiments
Description: as §1
Cells were treated by LPS (1 μg/mL) with or without samples (1–9, 1–30 μM) for 6 h. 100 μL of the culture supernatant was taken out to determine the level of TNF-α and IL-6 using respective enzyme-linked immunosorbent assay kit according to the manufacturer’s recommendations. Hydrocortisone was used as positive control.

Question: How did the IC50 [1] turn out when C[C@]12CCC(=O)C=C1CC[C@@H]1[C@@H]2[C@@H](O)C[C@@]2(C)[C@H]1CC[C@]2(O)C(=O)CO [Hydrocortisone] was run?
Answer: 64.3 µM

Question: And the IC50 [2]?
Answer: 85.6 µM

Question: And the IC50 [3]?
Answer: 63.9 µM

Source: article PMC2992995, “Characterization and Online Detection of Surfactin Isomers Based on HPLC-MS^n Analyses and Their Inhibitory Effects on the Overproduction of Nitric Oxide and the Release of TNF-α and IL-6 in LPS-Induced Macrophages” (Marine Drugs, 2010)
